In patent US20250213701A1, “MEDICAMENT FOR TREATING HUMAN TUMOR BASED ON ERF3A-TARGETING PROTEOLYSIS MECHANISM” (SUZHOU DEGEN BIO-MEDICAL CO., LTD., priority 2022, published 2025):

Assays:
AGS cells = assay: Anti-proliferative toxicity of C63 in tumor cell lines (CCK8): AGS; format: cell-based; conditions: Homo sapiens, 72 h, 3 days, read-out: Inhibition rate
Procedure: (§1) Example 83: Detection of Anti-Proliferative Toxicity of C63 in Some Tumor Cell Lines
(§2) AGS cells (purchased from the Cell Bank of the Chinese Academy of Sciences, Cat. No. TCHu232) were subcultured in a culture medium (F12K medium+100 penicillin-streptomycin dual-antibiotic solution+10% fetal bovine serum) in an incubator at 500 carbon dioxide and 37° C.
AGS cells were seeded at 2000 cells/well (90 μL) on a 96-well plate and cultured for 24 h.
(§3) 10 mM compound stock solutions were prepared in DMSO.
(§4) The compound stock solution was diluted with DMSO to give DMSO solutions 1-9 at concentrations of 0 μM, 2500 μM, 500 μM, 100 μM, 20 μM, 4 μM, 0.8 μM, 0.16 μM, and 0.032 μM.
(§5) 2 μL of each of solutions 1-9 was added to 98 μL of the medium to give mixed solutions 11-19 of the compound and the medium.
(§6) 10 μL of each of solutions 11-19 was added to the above cell seed solution to give a total volume of 100 μL (90 μL+10 μL).
(§7) The concentrations of the compound in the wells were 0 μM, 5.0 μM, 1.0 μM, 0.2 μM, 0.04 μM, 0.008 μM, 0.0016 μM, 0.00032 μM, and 0.000064 μM. All concentrations were in triplicate.
(§8) After the above-treated cells were cultured for 3 days, 10 μL of the CCK8 solution (DOJINDO, Cat. No. PF725) was added to each well. The plate was incubated in an incubator at 37° C. for 1-4 h and then detected on a microplate reader for the reading at 450 nm.

MCF-7 cells = assay: Anti-proliferative toxicity of C63 in tumor cell lines (CCK8): MCF-7; format: cell-based; conditions: Homo sapiens, MCF7, 72 h, 3 days, read-out: Inhibition rate
Procedure: as §1
as §2, with “MCF-7” for “AGS”, “SCSP-531)” for “TCHu232)”, “(MEM medium+1%” for “(F12K medium+100”, “serum+0.01 mg/mL recombinant human insulin)” for “serum)”, “5%” for “500”
MCF-7 cells were seeded at 5000 cells/well (90 μL) on a 96-well plate and cultured for 24 h.
as §3, §4, §5, §6, §7, §8

SMILES: C[C@]12C=CC(=O)N[C@@H]1CC[C@@H]1[C@@H]2CC[C@]2(C)[C@@H](C(=O)Nc3cccc(N[C@@H]4CCC[C@@H](Nc5cccc6c5C(=O)N([C@H]5CCC(=O)NC5=O)C6=O)C4)c3)CC[C@@H]12 [C63, N-(3-(N—(N-(4-(2-(3S-(2,6-dioxopiperidine))-isoindole-1,3-dione))-1R,3R-cyclohexanediamine))phenyl)-3-oxo-4-aza-5α-androst-1-ene-17β-carboxamide]
- inhibition at 64 pM (AGS cells; 0.000064 μM): 17.5%
- inhibition at 0.00032 µM (AGS cells; 0.000320 μM): 11.1%
- inhibition at 0.0016 µM (AGS cells; 0.001600 μM): 20.4%
- inhibition at 0.008 µM (AGS cells; 0.008000 μM): 44.2%
- inhibition at 0.04 µM (AGS cells; 0.040000 μM): 59.7%
- inhibition at 0.2 µM (AGS cells; 0.200000 μM): 74%
- inhibition at 1 µM (AGS cells; 1.000000 μM): 79.8%
- inhibition at 5 µM (AGS cells; 5.000000 μM): 80.8%
- inhibition at 64 pM (MCF-7 cells; 0.000064 μM): 6.61%
- inhibition at 0.00032 µM (MCF-7 cells; 0.000320 μM): 14.5%
- inhibition at 0.0016 µM (MCF-7 cells; 0.001600 μM): 36.8%
- inhibition at 0.008 µM (MCF-7 cells; 0.008000 μM): 46%
- inhibition at 0.04 µM (MCF-7 cells; 0.040000 μM): 50.2%
- inhibition at 0.2 µM (MCF-7 cells; 0.200000 μM): 54.9%
- inhibition at 1 µM (MCF-7 cells; 1.000000 μM): 57.6%
- inhibition at 5 µM (MCF-7 cells; 5.000000 μM): 61.4%
